What all share (experiment): biochemical
Common to all, as to set-up: KINOMEscan scanMAX competition binding, DNA-tagged kinases, qPCR read-out, percent control at 300 nM
Background: In qPCR the cycle at which signal appears reflects the starting amount.

In one assay the target is EGFR(L747-T751del,Sins) (Homo sapiens, UniProt P00533, DEL747-750/T751S). The settings on record: read-out: Percent control / Tirabrutinib.
The target of the next assay is EGFR(L861Q) (Homo sapiens, UniProt P00533, L861Q). The settings on record: read-out: Percent control / Tirabrutinib.
The target in a further assay is MARK1 (Homo sapiens, UniProt Q9P0L2). To be noted: read-out: Percent control / Tirabrutinib.
A further assay deals with PRKG1 (Homo sapiens, UniProt Q13976). The settings on record: read-out: Percent control / Tirabrutinib.
In the next assay the target is T1, PRKR (Homo sapiens, UniProt P19525).
T1 construct: gene EIF2AK2
The settings on record: read-out: Percent control / Tirabrutinib.

For assay [1], the target named is T2, ABL1(F317I)-phosphorylated (Homo sapiens, UniProt P00519, F317I).
T2 construct: phosphorylated
To be noted: read-out: Percent control / Acalabrutinib.

Another assay concerns the target CDK9 (Homo sapiens, UniProt P50750). The settings on record: read-out: Percent control / Acalabrutinib.
For another assay, the target named is HIPK1 (Homo sapiens, UniProt Q86Z02). To be noted: read-out: Percent control / Acalabrutinib.
In a further assay the target is T3, JNK3 (Homo sapiens, UniProt P53779).
T3 construct: gene MAPK10
To be noted: read-out: Percent control / Acalabrutinib.

A further assay deals with T4, NDR2 (Homo sapiens, UniProt Q9Y2H1).
T4 construct: gene STK38L
To be noted: read-out: Percent control / Acalabrutinib.

For another assay, the target named is NEK5 (Homo sapiens, UniProt Q6P3R8). The settings on record: read-out: Percent control / Acalabrutinib.
Chain of NEK5 (Q6P3R8 whole entry): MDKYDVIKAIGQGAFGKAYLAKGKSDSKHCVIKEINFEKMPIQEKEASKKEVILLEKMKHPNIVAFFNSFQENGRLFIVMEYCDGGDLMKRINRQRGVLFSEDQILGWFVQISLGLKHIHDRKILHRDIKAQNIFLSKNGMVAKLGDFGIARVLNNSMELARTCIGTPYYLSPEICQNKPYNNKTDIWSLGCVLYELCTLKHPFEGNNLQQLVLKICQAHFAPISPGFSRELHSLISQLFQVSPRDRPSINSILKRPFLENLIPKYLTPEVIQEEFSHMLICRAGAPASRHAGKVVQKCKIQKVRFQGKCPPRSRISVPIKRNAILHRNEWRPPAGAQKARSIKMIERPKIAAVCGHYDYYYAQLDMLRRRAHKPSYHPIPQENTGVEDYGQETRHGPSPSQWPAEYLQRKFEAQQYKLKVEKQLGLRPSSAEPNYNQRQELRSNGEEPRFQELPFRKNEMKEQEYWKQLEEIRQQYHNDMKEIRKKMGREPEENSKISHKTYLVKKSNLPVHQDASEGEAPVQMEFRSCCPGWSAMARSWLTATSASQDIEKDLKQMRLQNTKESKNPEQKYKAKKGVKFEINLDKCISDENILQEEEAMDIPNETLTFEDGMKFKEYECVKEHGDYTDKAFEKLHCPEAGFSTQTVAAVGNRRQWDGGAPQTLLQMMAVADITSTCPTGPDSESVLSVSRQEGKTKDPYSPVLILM
In the next assay the target is TAOK2 (Homo sapiens, UniProt Q9UL54). To be noted: read-out: Percent control / Acalabrutinib.
Chain of TAOK2 (Q9UL54 whole entry): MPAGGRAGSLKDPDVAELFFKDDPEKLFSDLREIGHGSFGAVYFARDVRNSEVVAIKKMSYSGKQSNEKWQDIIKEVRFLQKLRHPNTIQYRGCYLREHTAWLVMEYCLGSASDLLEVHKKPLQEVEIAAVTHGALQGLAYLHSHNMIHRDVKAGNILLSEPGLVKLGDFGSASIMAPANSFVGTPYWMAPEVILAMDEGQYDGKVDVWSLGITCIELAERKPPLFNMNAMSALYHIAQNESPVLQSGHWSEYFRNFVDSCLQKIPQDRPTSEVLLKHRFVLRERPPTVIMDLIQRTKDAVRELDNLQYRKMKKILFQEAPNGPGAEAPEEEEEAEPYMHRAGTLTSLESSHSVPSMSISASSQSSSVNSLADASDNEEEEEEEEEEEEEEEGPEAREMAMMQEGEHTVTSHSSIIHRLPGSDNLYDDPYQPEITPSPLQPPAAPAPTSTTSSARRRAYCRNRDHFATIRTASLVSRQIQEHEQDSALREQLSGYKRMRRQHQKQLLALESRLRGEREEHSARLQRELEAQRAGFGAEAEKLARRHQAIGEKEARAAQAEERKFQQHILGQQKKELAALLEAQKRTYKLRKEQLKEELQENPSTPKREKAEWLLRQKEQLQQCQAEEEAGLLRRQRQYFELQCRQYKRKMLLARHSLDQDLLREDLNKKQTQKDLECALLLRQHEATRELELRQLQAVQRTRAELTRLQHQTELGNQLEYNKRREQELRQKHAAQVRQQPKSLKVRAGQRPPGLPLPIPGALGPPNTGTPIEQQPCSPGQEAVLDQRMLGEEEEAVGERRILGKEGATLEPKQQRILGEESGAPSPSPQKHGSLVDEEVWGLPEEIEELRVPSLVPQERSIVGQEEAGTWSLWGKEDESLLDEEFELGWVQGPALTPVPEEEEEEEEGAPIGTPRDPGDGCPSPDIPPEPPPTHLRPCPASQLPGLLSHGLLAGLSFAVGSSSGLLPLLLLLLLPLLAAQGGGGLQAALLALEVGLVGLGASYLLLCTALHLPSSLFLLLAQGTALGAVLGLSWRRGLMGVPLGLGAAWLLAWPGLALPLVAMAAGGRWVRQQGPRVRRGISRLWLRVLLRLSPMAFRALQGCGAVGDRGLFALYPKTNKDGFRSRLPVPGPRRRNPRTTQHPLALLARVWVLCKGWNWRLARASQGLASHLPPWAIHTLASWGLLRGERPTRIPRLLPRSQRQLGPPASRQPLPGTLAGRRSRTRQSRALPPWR
For another assay, the target named is CAMK2A (Homo sapiens, UniProt Q9UQM7). To be noted: read-out: Percent control / Ibrutinib.
Chain of CAMK2A (Q9UQM7 whole entry, looked up): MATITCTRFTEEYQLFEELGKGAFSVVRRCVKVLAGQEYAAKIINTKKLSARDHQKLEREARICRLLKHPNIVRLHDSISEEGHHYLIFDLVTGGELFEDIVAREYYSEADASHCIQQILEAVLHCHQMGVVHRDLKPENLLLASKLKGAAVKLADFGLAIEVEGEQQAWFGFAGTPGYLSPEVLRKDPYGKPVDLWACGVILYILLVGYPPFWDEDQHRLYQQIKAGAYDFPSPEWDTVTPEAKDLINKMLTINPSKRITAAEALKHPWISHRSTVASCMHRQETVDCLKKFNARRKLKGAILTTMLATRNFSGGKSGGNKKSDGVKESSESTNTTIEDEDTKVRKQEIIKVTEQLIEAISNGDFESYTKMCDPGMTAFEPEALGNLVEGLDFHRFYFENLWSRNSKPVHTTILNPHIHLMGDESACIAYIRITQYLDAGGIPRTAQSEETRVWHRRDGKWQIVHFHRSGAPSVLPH
Another assay addresses MYO3B (Homo sapiens, UniProt Q8WXR4). The settings on record: read-out: Percent control / Ibrutinib.
The next assay addresses T5, CDK4-cyclinD1 (Homo sapiens, UniProt P11802).
T5 construct: cyclinD1
To be noted: read-out: Percent control / Zanubrutinib.

The next assay deals with CSNK2A2 (Homo sapiens, UniProt P19784). To be noted: read-out: Percent control / Zanubrutinib.
A further assay addresses T6, MEK4 (Homo sapiens, UniProt P45985).
T6 construct: gene MAP2K4
The settings on record: read-out: Percent control / Zanubrutinib.

Another assay concerns the target T7, MST1 (Homo sapiens, UniProt Q13043).
T7 construct: gene STK4
The settings on record: read-out: Percent control / Zanubrutinib.

Another assay addresses MYLK2 (Homo sapiens, UniProt Q9H1R3). To be noted: read-out: Percent control / Zanubrutinib.
The target of the next assay is NEK6 (Homo sapiens, UniProt Q9HC98). To be noted: read-out: Percent control / Zanubrutinib.
Chain of NEK6 (Q9HC98 whole entry): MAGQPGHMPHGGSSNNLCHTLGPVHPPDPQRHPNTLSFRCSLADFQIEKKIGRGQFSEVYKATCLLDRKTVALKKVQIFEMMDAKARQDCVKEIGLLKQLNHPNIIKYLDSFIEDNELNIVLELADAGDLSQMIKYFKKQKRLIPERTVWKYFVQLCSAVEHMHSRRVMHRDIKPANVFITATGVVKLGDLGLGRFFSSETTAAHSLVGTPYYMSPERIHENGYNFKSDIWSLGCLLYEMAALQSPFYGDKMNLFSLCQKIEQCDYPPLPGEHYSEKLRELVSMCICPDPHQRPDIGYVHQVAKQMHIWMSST
The target of a further assay is T8, PCTK1 (Homo sapiens, UniProt Q00536).
T8 construct: gene CDK16
T8 sequence (Q00536 whole entry): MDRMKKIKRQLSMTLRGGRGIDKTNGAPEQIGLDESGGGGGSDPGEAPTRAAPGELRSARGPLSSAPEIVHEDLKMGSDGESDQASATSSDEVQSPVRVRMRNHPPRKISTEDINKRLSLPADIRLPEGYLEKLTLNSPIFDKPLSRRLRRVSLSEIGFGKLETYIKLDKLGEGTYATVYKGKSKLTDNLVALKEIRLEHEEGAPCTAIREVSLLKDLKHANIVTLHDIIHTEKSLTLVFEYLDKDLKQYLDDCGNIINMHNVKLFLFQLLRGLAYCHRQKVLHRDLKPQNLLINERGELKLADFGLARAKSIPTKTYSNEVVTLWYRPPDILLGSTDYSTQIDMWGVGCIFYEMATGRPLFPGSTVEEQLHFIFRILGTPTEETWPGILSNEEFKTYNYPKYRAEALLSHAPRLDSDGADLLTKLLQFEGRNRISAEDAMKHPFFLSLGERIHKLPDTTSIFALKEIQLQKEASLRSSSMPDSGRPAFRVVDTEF
The settings on record: read-out: Percent control / Zanubrutinib.

In the next assay the target is STK39 (Homo sapiens, UniProt Q9UEW8). The settings on record: read-out: Percent control / Zanubrutinib.
The next assay has as its target ULK2 (Homo sapiens, UniProt Q8IYT8). The settings on record: read-out: Percent control / Zanubrutinib.

Chain of MYLK2 (Q9H1R3 whole entry): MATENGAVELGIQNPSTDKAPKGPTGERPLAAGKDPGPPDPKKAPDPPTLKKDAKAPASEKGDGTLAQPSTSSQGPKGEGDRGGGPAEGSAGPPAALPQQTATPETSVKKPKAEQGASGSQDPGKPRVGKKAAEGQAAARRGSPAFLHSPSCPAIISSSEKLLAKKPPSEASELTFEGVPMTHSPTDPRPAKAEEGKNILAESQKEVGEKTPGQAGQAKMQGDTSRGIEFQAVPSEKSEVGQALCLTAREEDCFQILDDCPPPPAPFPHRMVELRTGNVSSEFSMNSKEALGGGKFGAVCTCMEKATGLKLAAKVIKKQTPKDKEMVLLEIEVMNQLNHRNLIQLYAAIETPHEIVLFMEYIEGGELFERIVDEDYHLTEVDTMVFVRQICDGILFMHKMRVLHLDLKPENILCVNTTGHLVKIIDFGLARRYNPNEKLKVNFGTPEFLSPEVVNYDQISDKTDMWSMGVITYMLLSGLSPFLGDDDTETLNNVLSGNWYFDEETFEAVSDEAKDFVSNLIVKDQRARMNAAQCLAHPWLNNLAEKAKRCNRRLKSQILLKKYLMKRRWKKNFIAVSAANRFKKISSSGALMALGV
T7 sequence (Q13043 whole entry): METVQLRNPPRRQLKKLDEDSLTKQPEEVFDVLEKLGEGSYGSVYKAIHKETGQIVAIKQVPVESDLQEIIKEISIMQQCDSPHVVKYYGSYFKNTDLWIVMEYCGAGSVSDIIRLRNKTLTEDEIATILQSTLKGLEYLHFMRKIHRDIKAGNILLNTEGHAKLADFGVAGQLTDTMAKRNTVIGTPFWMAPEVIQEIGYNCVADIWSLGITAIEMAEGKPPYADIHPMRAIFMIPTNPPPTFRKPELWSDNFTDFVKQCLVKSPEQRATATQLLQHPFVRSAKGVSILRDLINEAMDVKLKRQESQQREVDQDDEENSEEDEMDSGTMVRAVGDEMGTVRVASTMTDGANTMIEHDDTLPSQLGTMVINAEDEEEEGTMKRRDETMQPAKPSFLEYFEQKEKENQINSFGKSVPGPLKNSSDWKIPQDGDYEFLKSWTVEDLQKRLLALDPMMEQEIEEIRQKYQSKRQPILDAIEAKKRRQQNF
T6 sequence (P45985 whole entry): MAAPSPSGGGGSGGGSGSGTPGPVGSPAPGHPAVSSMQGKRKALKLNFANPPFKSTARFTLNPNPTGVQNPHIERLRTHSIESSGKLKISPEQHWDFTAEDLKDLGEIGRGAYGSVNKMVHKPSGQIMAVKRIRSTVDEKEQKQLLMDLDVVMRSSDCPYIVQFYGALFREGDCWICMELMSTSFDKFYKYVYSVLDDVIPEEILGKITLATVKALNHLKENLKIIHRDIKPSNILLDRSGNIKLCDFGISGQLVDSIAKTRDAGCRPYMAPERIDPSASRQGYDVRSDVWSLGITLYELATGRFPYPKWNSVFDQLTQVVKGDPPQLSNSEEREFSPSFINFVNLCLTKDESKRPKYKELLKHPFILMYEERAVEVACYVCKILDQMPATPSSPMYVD

On to `CC#CC(=O)N1CC[C@@H](n2c(=O)n(-c3ccc(Oc4ccccc4)cc3)c3c(N)ncnc32)C1` [Tirabrutinib], for which the remaining binding at 0.3 µM on EGFR(L747-T751del,Sins) amounted to 80%; on EGFR(L861Q), 86%; on MARK1, 88%; at PRKG1, 90%; on PRKR it was 93%.

Take `CC#CC(=O)N1CCC[C@H]1c1nc(-c2ccc(C(=O)Nc3ccccn3)cc2)c2c(N)nccn12` [Acalabrutinib]: the remaining binding at 0.3 µM in assay [1] is 94%; on CDK9 it was 94%; at HIPK1 it was 85%; on JNK3, 94%; at NDR2, 99%; at NEK5, 96%. Besides, at TAOK2, the remaining binding at 0.3 µM was 93%.

As to `C=CC(=O)N1CCC[C@@H](n2nc(-c3ccc(Oc4ccccc4)cc3)c3c(N)ncnc32)C1` [Ibrutinib], the results for the remaining binding at 0.3 µM on CAMK2A and at MYO3B were 82% and 80%, respectively.

`C=CC(=O)N1CCC([C@@H]2CCNc3c(C(N)=O)c(-c4ccc(Oc5ccccc5)cc4)nn32)CC1` [Zanubrutinib]: the remaining binding at 0.3 µM on CDK4-cyclinD1 amounted to 80%; on CSNK2A2, 100%; on MEK4, 93%; at MST1, 90%; at MYLK2, 96%; on NEK6, 88%. The values for the remaining binding at 0.3 µM on PCTK1, on STK39 and on ULK2 were 100%, 96% and 99%, respectively.

The values are drawn from paper PMC10004634 (PLOS ONE, 2023).
